For 14 compounds, IC50 and melting point results are on record in publication PMC7012010, “Synthesis and biological evaluation of 2-styrylquinolines as antitumour agents and EGFR kinase inhibitors: molecular docking study” (Journal of Enzyme Inhibition and Medicinal Chemistry, 2017).

For data set [1], the system named is HepG2. The data set is described as follows: MTT antitumour (cytotoxicity) assay, HepG2. In kind it is cell-based. As to conditions: Homo sapiens, HepG2, HepG2 cell line, 50% inhibition of tumour cell proliferation, read-out: In vitro cytotoxicity IC50. The protocol:
(§1) The designed compounds were evaluated for their in vitro antitumour effect using the standard MTT method against two human tumour cell lines, namely, HepG2 and HCT116[45–48]. The quantitative evaluation of the cytotoxicity was performed using tetrazolium salt MTT (3-(4,5-dimethyl-2-thiazolyl)-2,5-diphenyl-2 H-tetrazolium bromide) assay. The cytotoxic activity was expressed as the concentration of the compound that caused 50% growth inhibition (IC50, mean ± SEM) compared with the growth of untreated cells.

For data set [2], the system named is HCT116. The data set is described as follows: MTT antitumour (cytotoxicity) assay, HCT116. In kind it is cell-based. As to conditions: Homo sapiens, HCT-116, HCT116 cell line, 50% inhibition of tumour cell proliferation, read-out: In vitro cytotoxicity IC50. Here is the method: as §1
The target in data set [3] is EGFR kinase (Homo sapiens, UniProt P00533). The data set is described as follows: ELISA-based EGFR-TK kinase inhibition assay. The following applies: n = 3, read-out: Enzymatic IC50 toward EGFR kinase. In kind it is biochemical. The protocol:
EGFR kinase activity was determined via enzyme-linked immunosorbent assay (ELISA) in 96-well plates. The EGFR kinase activity for each compound were expressed as IC50 values. Data were represented as mean ± SD from three independent experiments, and differences between groups were considered statistically significant at p < .05.
The mechanism of antitumour activity of the target compounds was studied using ELISA-based EGFR-TK assay.
For orientation: In an ELISA, binding on a coated surface is turned into a signal by an enzyme label.

Structures are written as SMILES. In brackets after ≈: the same amount, converted by molar mass.

Sequence of EGFR kinase (P00533 25-1210): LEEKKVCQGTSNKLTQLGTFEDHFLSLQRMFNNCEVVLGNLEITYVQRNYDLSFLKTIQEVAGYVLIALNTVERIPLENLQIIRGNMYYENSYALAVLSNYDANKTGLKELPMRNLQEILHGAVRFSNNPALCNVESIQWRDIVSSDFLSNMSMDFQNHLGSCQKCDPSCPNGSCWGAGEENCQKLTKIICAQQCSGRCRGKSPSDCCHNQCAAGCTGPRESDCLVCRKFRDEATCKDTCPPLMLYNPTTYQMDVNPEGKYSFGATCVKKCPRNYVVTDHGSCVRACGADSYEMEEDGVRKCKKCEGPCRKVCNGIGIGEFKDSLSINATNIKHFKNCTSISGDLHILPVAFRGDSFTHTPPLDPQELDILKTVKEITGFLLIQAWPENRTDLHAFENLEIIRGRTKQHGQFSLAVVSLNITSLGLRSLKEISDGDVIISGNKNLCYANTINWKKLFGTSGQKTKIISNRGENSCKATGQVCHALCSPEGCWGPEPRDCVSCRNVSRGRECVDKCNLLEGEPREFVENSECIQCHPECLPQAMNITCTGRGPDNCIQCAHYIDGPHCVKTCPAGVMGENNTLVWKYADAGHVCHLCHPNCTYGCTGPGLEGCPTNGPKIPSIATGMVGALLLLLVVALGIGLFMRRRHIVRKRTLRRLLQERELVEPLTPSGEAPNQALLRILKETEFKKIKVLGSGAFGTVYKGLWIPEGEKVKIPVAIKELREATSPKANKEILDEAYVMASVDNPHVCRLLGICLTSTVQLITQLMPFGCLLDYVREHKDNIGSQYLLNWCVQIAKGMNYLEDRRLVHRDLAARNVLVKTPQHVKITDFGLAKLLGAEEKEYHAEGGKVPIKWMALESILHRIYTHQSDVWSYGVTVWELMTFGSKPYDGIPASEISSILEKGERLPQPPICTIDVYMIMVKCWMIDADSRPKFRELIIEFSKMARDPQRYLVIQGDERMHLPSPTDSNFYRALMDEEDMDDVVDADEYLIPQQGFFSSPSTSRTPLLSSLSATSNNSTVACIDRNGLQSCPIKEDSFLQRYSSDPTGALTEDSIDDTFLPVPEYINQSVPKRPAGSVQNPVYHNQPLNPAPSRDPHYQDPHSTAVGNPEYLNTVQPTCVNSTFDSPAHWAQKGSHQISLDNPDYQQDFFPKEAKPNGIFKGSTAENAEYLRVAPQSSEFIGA

Usually IC50 stands for the point on the concentration scale where inhibition reaches its midpoint. Take `CN(C)C/C=C/C(=O)Nc1cc2c(Nc3ccc(F)c(Cl)c3)ncnc2cc1O[C@H]1CCOC1` [Afatinib, afatinib, reference compound]: the IC50 in data set [1] worked out at 5.4 ± 0.25 µg/mL (≈ 11.1 µM); in data set [2], 11.4 ± 1.26 µg/mL (≈ 23.5 µM).

For `CN(C)c1ccc(/C=C/c2cc(C(=O)O)c3cc(Br)ccc3n2)cc1` [Compound 3a], the IC50 in data set [3] came to 2.23 µM; in data set [1] it was 9.8 ± 0.2 µg/mL (≈ 24.7 µM); in data set [2], 9 ± 0.35 µg/mL (≈ 22.7 µM).

As a reminder, the melting point is the temperature of the solid-liquid transition. The compound `Cc1ccc2nc(C=Cc3ccc(N(C)C)cc3)cc(C(=O)O)c2c1` [Compound 3b, 2–(4-(Dimethylamino)styryl)-6-methylquinoline-4-carboxylic acid] gave a melting point of 275 °C. In addition, the IC50 in data set [3] turned out to be 8.01 µM. Moreover, the IC50 in data set [1] was determined as 17.2 ± 1.04 µg/mL (≈ 51.7 µM). Further, the IC50 in data set [2] was determined as 14.8 ± 0.89 µg/mL (≈ 44.5 µM).

For `CN(C)c1ccc(C=Cc2cc(-c3nnc(N)s3)c3cc(Br)ccc3n2)cc1` [Compound 4a, 5-(6-Bromo-2–(4-(dimethylamino)styryl)quinolin-4-yl)-1,3,4-thiadiazol-2-amine], the melting point turned out to be 223 °C. Moreover, the IC50 in data set [3] was determined as 8.78 µM. In addition, in data set [1], the IC50 was found to be 9 ± 0.19 µg/mL (≈ 19.9 µM). Further, in data set [2], the IC50 came to 14.2 ± 0.67 µg/mL (≈ 31.4 µM).

With `Cc1ccc2nc(C=Cc3ccc(N(C)C)cc3)cc(-c3nnc(N)s3)c2c1` [Compound 4b, 5-(2-(4-(Dimethylamino)styryl)-6-methylquinolin-4-yl)-1,3,4-thiadiazol-2-amine], the melting point turned out to be 226 °C. Further, the IC50 in data set [3] was determined as 1.11 µM. In addition, the IC50 in data set [1] amounted to 7.7 ± 0.15 µg/mL (≈ 19.9 µM). In addition, in data set [2], the IC50 worked out at 8.8 ± 0.26 µg/mL (≈ 22.7 µM).

With `O=c1[nH]cc(F)c(=O)[nH]1` [Compound 5-FU, 5-fluorouracil, reference compound], the figures for the IC50 in data set [1] and in data set [2] were 7.9 ± 0.17 µg/mL (≈ 60.7 µM) and 5.3 ± 0.32 µg/mL (≈ 40.7 µM), respectively.

The compound `CN(C)c1ccc(C=Cc2cc(C(=O)Oc3ccc(C=O)cc3)c3cc(Br)ccc3n2)cc1` [Compound 6a, 4-Formylphenyl 6-bromo-2-(4-(dimethylamino)styryl)quinoline-4-carboxylate] came in with a melting point of 242 °C. The IC50 in data set [1] was 82.9 ± 4.64 µg/mL (≈ 165 µM). Moreover, in data set [2], the IC50 amounted to 96.6 ± 5.4 µg/mL (≈ 193 µM).

Compound `Cc1ccc2nc(C=Cc3ccc(N(C)C)cc3)cc(C(=O)Oc3ccc(C=O)cc3)c2c1` [Compound 6b, 4-Formylphenyl 2-(4-(dimethylamino)styryl)-6-methylquinoline-4-carboxylate] yielded a melting point of 248 °C. Further, the IC50 in data set [1] is > 100 µg/mL. Moreover, the IC50 in data set [2] was > 100 µg/mL.

`CN(C)c1ccc(C=Cc2cc(C(=O)NNc3ccccc3)c3cc(Br)ccc3n2)cc1` [Compound 7a, 6-Bromo-2-(4-(dimethylamino)styryl)-N'-phenylquinoline-4-carbohydrazide] gave a melting point of 232 °C. Further, the IC50 in data set [1] came out at 46.1 ± 2.81 µg/mL (≈ 94.6 µM). In addition, the IC50 in data set [2] turned out to be 49.7 ± 3 µg/mL (≈ 102 µM).

`Cc1ccc2nc(C=Cc3ccc(N(C)C)cc3)cc(C(=O)NNc3ccccc3)c2c1` [Compound 7b, 2-(4-(Dimethylamino)styryl)-6-methyl-N'-phenylquinoline-4-carbohydrazide] gave a melting point of 228 °C. Moreover, the IC50 in data set [1] is 72.8 ± 3.82 µg/mL (≈ 172 µM). Moreover, in data set [2], the IC50 turned out to be 61.4 ± 3.76 µg/mL (≈ 145 µM).

Regarding `CCOC(=O)C(C#N)C(=O)c1cc(C=Cc2ccc(N(C)C)cc2)nc2ccc(Br)cc12` (centres unmarked) [Compound 8a, Ethyl 3-(6-bromo-2-(4-(dimethylamino)styryl)quinolin-4-yl)-2-cyano-3-oxopropanoate], the melting point is > 300 °C. Moreover, the IC50 in data set [3] stood at 16 µM. Further, the IC50 in data set [1] stood at 26.2 ± 1.79 µg/mL (≈ 53.2 µM). For the same compound, the IC50 in data set [2] came to 16 ± 0.88 µg/mL (≈ 32.5 µM).

Consider `CCOC(=O)C(C#N)C(=O)c1cc(C=Cc2ccc(N(C)C)cc2)nc2ccc(C)cc12` (centres unmarked) [Compound 8b, Ethyl 2-cyano-3-(2-(4-(dimethylamino)styryl)-6-methylquinolin-4-yl)-3-oxopropanoate], for which the melting point was > 300 °C. The IC50 in data set [1] was found to be 43.7 ± 2.66 µg/mL (≈ 102 µM). The IC50 in data set [2] was 52.6 ± 3.92 µg/mL (≈ 123 µM).

With `CC(=O)C(C(C)=O)C(=O)c1cc(C=Cc2ccc(N(C)C)cc2)nc2ccc(Br)cc12` [Compound 9a, 3-(6-Bromo-2-(4-(dimethylamino)styryl)quinoline-4-carbonyl)pentane-2,4-dione], the melting point was > 300 °C. Moreover, in data set [1], the IC50 was 65.4 ± 3.18 µg/mL (≈ 136 µM). In addition, the IC50 in data set [2] is 57.3 ± 3.07 µg/mL (≈ 120 µM).

With `CC(=O)C(C(C)=O)C(=O)c1cc(C=Cc2ccc(N(C)C)cc2)nc2ccc(C)cc12` [Compound 9b, 3-(2-(4-(Dimethylamino)styryl)-6-methylquinoline-4-carbonyl)pentane-2,4-dione], the melting point was > 300 °C. For the same compound, the IC50 in data set [1] was > 100 µg/mL. In addition, the IC50 in data set [2] amounted to 93.1 ± 5.64 µg/mL (≈ 225 µM).
